Assay results from publication PMC6272242, “Topical Anti-inflammatory Activity of New Hybrid Molecules of Terpenes and Synthetic Drugs” (Molecules, 2015).

What was measured:
[1] = system: lung fibroblasts (MRC-5); assay: Cytotoxicity, MTT reduction assay, MRC-5; type: cell-based; settings: Homo sapiens, MRC5, confluent cultures, 24 h, read-out: IC50 ± SD, MRC-5
Description: (§1) The human cell lines, MRC-5 normal lung fibroblasts (CCL-171), AGS gastric epithelial adenocarcinoma cells (CRL-1739) and HepG2 hepatocellular carcinoma cells (HB-8065) were obtained from the American Type Culture Collection (ATCC, Manasas, VA, USA). The cells were grown as monolayers in the following media: MRC-5 and HepG2 in MEM and AGS in Ham F-12. The MEM medium contained 2 mM L-glutamine, 1 mM sodium pyruvate and 1.5 g/L sodium bicarbonate. Ham F-12 was supplemented with 2 mM L-glutamine and 1.5 g/L sodium bicarbonate. Both media were supplemented with 10% heat inactivated fetal bovine serum, 100 IU/mL penicillin and 100 µg/mL streptomycin in a humidified incubator with 5% CO2 in air at 37 °C. For the experiments, cells were plated at a density of 25,000 cells/mL in 96-well plates. […] Compounds were first dissolved in DMSO and then in medium. The final concentration of DMSO in the test medium and controls was 1%. […] The cell viability for each compound was calculated comparing the cell viability of the untreated controls (100%) with the cell viability of the different concentrations of each compound. Each concentration was tested in quadruplicate together with the control and repeated three times in separate experiments. Cell viability was determined at the end of the incubation by means of the MTT reduction assay. Results were converted to percentage of controls, and the IC50 values were graphically obtained from the dose-response curves. Culture media, antibiotics and fetal bovine serum were obtained from Invitrogen Corp. (Waltham, MA, USA). Other reagents were purchased from Sigma Chemical Co. For the animal experiments all values are presented as median ± SEM. Drug-induced changes were statistically estimated using the Kruskall-Wallis test for comparison between groups and testing, and the Mann-Whitney test was used in the independent data for individual comparisons. The effects were considered significant if p ≤ 0.05. For cytotoxicity experiments, each concentration was tested in quadruplicate together with the control and repeated three times in different experiments. Results are expressed as IC50 values (µM) ± S.D.

[2] = system: hepatocytes HepG2; assay: Cytotoxicity, MTT reduction assay, HepG2; type: cell-based; settings: Homo sapiens, confluent cultures, 24 h, read-out: IC50 ± SD, HepG2
Description: as §1, with “Results were converted to percentage of controls, and the IC50 values were graphically obtained from the dose-response curves.” left out

[3] = system: gastric epithelial cells (AGS); assay: Cytotoxicity, MTT reduction assay, AGS; type: cell-based; settings: Homo sapiens, Epithelial cell, confluent cultures, 24 h, read-out: IC50 ± SD, AGS
Description: as §1

[4] = system: xylene-induced ear edema; design: method as in PMID 16806590; settings: mice; cited from earlier work
[5] = system: acetic acid-induced writhing; design: method as in PMID 12767601; settings: oral administration, ibuprofen at 40 mg/kg; cited from earlier work
[6] = system: human lung fibroblasts (MRC-5), gastric epithelial cells (AGS) and hepatocytes HepG2; assay: Cytotoxicity, MTT reduction assay, summary over the three cell lines; type: cell-based; settings: for IC50: Homo sapiens, MRC-5, AGS and HepG2, 24 h, MTT, read-out: IC50 values, range over the three cell lines
Description: as §1

[7] = system: mice ear edema induced by arachidonic acid; assay: Topical anti-inflammatory effect, arachidonic acid (AA) induced ear edema in mice; type: in vivo; settings: 3.2 µmol/mouse; for inhibition in vivo at 3.2 µmol/animal: 1 h after AA, n = 8, read-out: % TAAA ± SEM (percent reduction of the ear edema, arachidonic acid)
Description: (§2) The inflammatory agent arachidonic acid (AA) and phorbol 12-myristate 13-acetate (TPA) were used to assess the anti-inflammatory effect/action mechanism of the starting compounds, new synthetic products and reference drugs. […] Adult male CF-1 mice (20–25 g), obtained from a stock maintained at the Chilean Public Health Institute, were used to assess the anti-inflammatory effect. All animals were housed in a climate- and light-controlled room with a 12 h light-dark cycle, fasted overnight before the day of the assays, with free access to water. The anti-inflammatory activity of each compound was evaluated in groups of 8 treated and 16 control mice. Due to ethical considerations, the number of animals was kept to a minimum and single dose experiments were carried out.
(§3) The pro-inflammatory agents TPA and AA, the reference drugs indomethacin and nimesulide were from Sigma. […] After 5 min, inflammation was induced by the application of 20 µL TPA or AA (5 mg/mL) in acetone. […] Control subjects only received TPA or AA. Both, the sample and the TPA or AA, were applied to the inner (10 µL) and outer (10 µL) surfaces of the right ear. The left ear only received acetone. Mice were sacrificed by cervical dislocation (after 6 h of TPA and 1 h AA), and a 6 mm diameter section of the right and left ears were cut and weighed. The weight differences between both ear sections correspond to the edema value. The percent topical anti-inflammatory activity (TA) was evaluated according to the following equation: (1) %TA=[ Wc−Ws/Wc]× 100 where Wc and Ws are the different median values of the weights of the right and the left ear sections of the control and the treated animals, respectively.
(§4) For the animal experiments all values are presented as median ± SEM. Drug-induced changes were statistically estimated using the Kruskall-Wallis test for comparison between groups and testing, and the Mann-Whitney test was used in the independent data for individual comparisons. The effects were considered significant if p ≤ 0.05. For cytotoxicity experiments, each concentration was tested in quadruplicate together with the control and repeated three times in different experiments. Results are expressed as IC50 values (µM) ± S.D.

[8] = system: mice ear edema induced by 12-O-tetradecanoylphorbol 13-acetate; assay: Topical anti-inflammatory effect, 12-O-tetradecanoylphorbol 13-acetate (TPA) induced ear edema in mice; type: in vivo; settings: 1.4 µmol/mouse, 6 h after TPA, n = 8, read-out: % TATPA ± SEM (percent reduction of the ear edema, TPA)
Description: as §2, §3, §4

Compound	IC50 [1]	IC50 [2]	IC50 [3]	Reduction of xylene-induced ear edema [4]	Reduction of stretches [5]	IC50 [6]	Activity in the AA model, in words [7]	inhibition in vivo at 3.2 µmol/animal [7]	inhibition in vivo at 1.4 µmol/animal [8]	Cytotoxic effect, in words ([6]; MRC-5, AGS and HepG2)
CC(C)Cc1ccc(C(C)C(=O)O)cc1 (centres unmarked) [Compound 4, ibuprofen, reference compound]	> 1000 µM	> 1000 µM	> 1000 µM	45.9%	77.6%	> 1000 µM	inactive	7.2 ± 5.5%	56.2 ± 3.4%	
ibuprofen propyl glucopyranoside ester				52.7%						
COc1ccc2cc([C@H](C)C(=O)Oc3cc4c(cc3C(C)C)CCC3C(C)(C)CCC[C@]43C)ccc2c1 (some centres unmarked) [Compound 7, Ferruginyl naproxenate]	945 ± 56 µM	> 1000 µM	874 ± 49 µM			≥ 874 µM		26.6 ± 4.1%	26.8 ± 3.8%	
CC(C)Cc1ccc([C@H](C)C(=O)Oc2cc3c(cc2C(C)C)CCC2C(C)(C)CCC[C@]32C)cc1 (mixture of isomers) [Compound 6, Ferruginyl ibuprofenate]	> 1000 µM	874 ± 34 µM	> 1000 µM			≥ 874 µM		14.9 ± 7.1%	47.9 ± 4.6%	
C=C1CC[C@@H]2[C@](C)(CCC[C@]2(C)C(=O)O)[C@H]1CC[C@H](C)CCO [Compound 2, imbricatolic acid, reference compound]	134 ± 7 µM	111 ± 7 µM	148 ± 9 µM			111 to 148 µM		5 ± 3%	10.1 ± 4%	moderate
